This passage reports efflux ratio, inhibition and Ki results from US10058540B2, “2-amino-5,5-difluoro-6-(fluoromethyl)-6-phenyl-3,4,5,6-tetrahydropyridines as BACE1 inhibitors” (H. Lundbeck A/S, priority 2014, dated 2018).

The test system of data set [1] is P-gp (MDR1). The data set is described as follows: MDCK-MDR1 assay (permeability / Pgp efflux). The settings on record: dog, Papp BA/Papp AB, Pgp substrate when ≥2. The format is in vitro ADME. On the procedure:
The permeability of the test compounds was assessed in MDCK-MDR1 cells that were cultured to confluency (4-6 days) in a 96 transwell plate. Test compounds were diluted with the transport buffer (HBSS+1% BSA) to a concentration of 0.5 μM and applied to the apical or basolateral side of the cell monolayer. Permeation of the test compounds from A to B direction or B to A direction was determined in triplicate over a 60-minute incubation time at 37° C. and 5% CO2 with a relative humidity of 95%. Test compounds were quantified by LC-MS/MS analysis based on the peaks area ratios of analyte/IS in both the receiver and donor wells of the transwell plate.
The apparent permeability coefficient Papp (cm/s) was calculated using the equation: Papp=(dCr/dt)×Vr/(A×C0) Where dCr/dt is the cumulative concentration of compound in the receiver chamber as a function of time (μM/s); Vr is the solution volume in the receiver chamber (0.05 mL on the apical side; 0.25 mL on the basolateral side); A is the surface area for the transport, i.e. 0.0804 cm^2 for the area of the monolayer; C0 is the initial concentration in the donor chamber (μM).
Compounds are classified Pgp substrates when efflux ratio (Papp BA/Papp AB) is ≥2.

Data set [2] addresses T1, BACE1 (Homo sapiens (Human), UniProt P56817). Put plainly: BACE1 efficacy assay (FRET-based, commercial BACE1 kit). The settings on record: 10 μM test compound. Type of data set: biochemical. On the procedure: The efficacy assay was performed as a FRET-based assay using a commercially available BACE1 kit (Life Technologies, P2985). 2 μl test compound at 10 μM (final concentration) and 15 μl BACE1 enzyme from the kit (final concentration 3 nM) were preincubated for 15 minutes at room temperature before addition of 15 μl of substrate from the kit (250 nM final concentration) and incubated for additional 90 minutes at room temperature. The assay plate was subsequently read in a Pherastar (Ex540/Em590). The enzyme activity observed in presence of test compound were normalized to the enzyme activity observed in presence of buffer and 10 μM (final concentration) of the high affinity BACE1 reference inhibitor (S)-6-[3-Chloro-5-(5-prop-1-ynyl-pyridin-3-yl)-thiophen-2-yl]-2-imino-3,6-dimethyl-tetra-hydropyrimidin-4-one, respectively. The efficacy of the test compounds was evaluated at 10 μM (final concentration) and defined as the percent inhibition of the enzyme activity using the equation % inhibition=100%−normalized enzyme activity in percent.

Data set [3] deals with T1, BACE1. Put plainly: BACE1 binding assay (SPA-based, radioligand). Particulars: pH 4.5, Ki=IC50/(1+L/Kd). The procedure:
The binding assay was performed as SPA-based assay using a biotinylated form of human BACE1 recombinantly expressed and subsequently purified from Freestyle HEK293 cells. The binding assay was run in a 50 mM sodium acetate buffer, pH 4.5 containing 50 mM NaCl and 0.03% Tween-20 in white clear bottom 384 plates (Corning #3653). 10 nM (final concentration) radioligand ([^3H]-N-((1S,2R)-1-benzyl-3-cyclopropylamino-2-hydroxy-propyl)-5-(methanesulfonyl-methyl-amino)-N-((R)-1-phenyl-ethyl)-isophthalamide) (TRQ11569 purchased from GE Healthcare) was mixed with test compound at a given concentration, 6 nM (final concentration) human BACE1 and 25 μg Streptavidin coated PVT core SPA beads (RPNQ0007, GE Healthcare Life Sciences) in a total volume of 40 μl. Several concentrations of each test compound were tested in the assay for IC50 determination. The plates were incubated for one hour at room temperature and counted in a Wallac Trilux counter. Total and non-specific binding were determined using buffer and 1 μM (final concentration) of the high affinity BACE1 reference inhibitor (S)-6-[3-chloro-5-(5-prop-1-ynyl-pyridin-3-yl)-thiophen-2-yl]-2-imino-3,6-dimethyl-tetrahydro-pyrimidin-4-one, respectively. For each test compound, a IC50 value (the concentration mediating 50% inhibition of the specific binding of the radioligand) was determined from concentration-response curve and used to calculate the Ki from the equation Ki=IC50/(1+L/Kd), where L and Kd are the final concentration of the radioligand used in the assay and the dissociation constant of the radioligand, respectively. The Kd of the radioligand was determined from saturation binding experiments.

T1 sequence (P56817 46-501): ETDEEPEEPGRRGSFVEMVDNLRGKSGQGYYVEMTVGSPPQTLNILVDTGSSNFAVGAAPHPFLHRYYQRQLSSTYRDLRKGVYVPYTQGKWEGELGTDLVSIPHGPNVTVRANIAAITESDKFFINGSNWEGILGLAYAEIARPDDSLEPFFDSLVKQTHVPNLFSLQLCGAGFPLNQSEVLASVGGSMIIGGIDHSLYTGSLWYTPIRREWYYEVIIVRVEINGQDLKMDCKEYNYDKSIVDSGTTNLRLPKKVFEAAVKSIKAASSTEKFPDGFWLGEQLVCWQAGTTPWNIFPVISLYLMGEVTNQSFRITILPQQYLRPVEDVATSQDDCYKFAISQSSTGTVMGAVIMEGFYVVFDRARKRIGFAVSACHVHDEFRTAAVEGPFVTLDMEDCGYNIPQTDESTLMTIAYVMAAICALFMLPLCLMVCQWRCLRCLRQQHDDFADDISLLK

For `NC1=N[C@](CF)(c2cc(NC(=O)c3ccc(Cl)cn3)ccc2F)C(F)(F)CC1` [Compound 1, (S)-N-(3-(6-amino-3,3-difluoro-2-(fluoromethyl)-2,3,4,5-tetrahydropyridin-2-yl)-4-fluorophenyl)-5-chloropicolinamide], in data set [1], the efflux ratio at 60 min, 0.5 μM is 1.75. Further, the inhibition at 10 µM in data set [2] worked out at 104%. The same molecule gave a Ki in data set [3] of 5.7 nM.
As to `NC1=N[C@](CF)(c2cc(NC(=O)c3ccc(F)cn3)ccc2F)C(F)(F)CC1` [Compound 2, (S)-N-(3-(6-amino-3,3-difluoro-2-(fluoromethyl)-2,3,4,5-tetrahydropyridin-2-yl)-4-fluoro-phenyl)-5-fluoropicolinamide], the efflux ratio at 60 min, 0.5 μM in data set [1] turned out to be 2.6. The inhibition at 10 µM in data set [2] was determined as 104%. Further, in data set [3], the Ki was 22 nM.
In the case of `COc1cnc(C(=O)Nc2ccc(F)c([C@@]3(CF)N=C(N)CCC3(F)F)c2)cn1` [Compound 3, (S)-N-(3-(6-amino-3,3-difluoro-2-(fluoromethyl)-2,3,4,5-tetrahydropyridin-2-yl)-4-fluoro-phenyl)-5-methoxypyrazine-2-carboxamide], the efflux ratio at 60 min, 0.5 μM in data set [1] worked out at 2.84. In addition, in data set [2], the inhibition at 10 µM stood at 104%. This molecule had a Ki in data set [3] of 13 nM.
Regarding `NC1=N[C@](CF)(c2cc(NC(=O)c3ccn(C(F)F)n3)ccc2F)C(F)(F)CC1` [Compound 4, (S)-N-(3-(6-amino-3,3-difluoro-2-(fluoromethyl)-2,3,4,5-tetrahydropyridin-2-yl)-4-fluorophenyl)-1-(difluoromethyl)-1H-pyrazole-3-carboxamide], in data set [1], the efflux ratio at 60 min, 0.5 μM came to 13.8. The inhibition at 10 µM in data set [2] was 104%. In data set [3], this molecule had a Ki of 25 nM.
In the case of `NC1=N[C@](CF)(c2cc(NC(=O)c3coc(C(F)F)n3)ccc2F)C(F)(F)CC1` [Compound 5, (S)-N-(3-(6-amino-3,3-difluoro-2-(fluoromethyl)-2,3,4,5-tetrahydropyridin-2-yl)-4-fluoro-phenyl)-2-(difluoromethyl)oxazole-4-carboxamide], the efflux ratio at 60 min, 0.5 μM in data set [1] was determined as 7.31. For the same molecule, in data set [2], the inhibition at 10 µM was found to be 102%. Besides, in data set [3], the Ki worked out at 15 nM.
For `N#Cc1ccc(C(=O)Nc2ccc(F)c([C@@]3(CF)N=C(N)CCC3(F)F)c2)nc1` [Compound 6, (S)-N-(3-(6-amino-3,3-difluoro-2-(fluoromethyl)-2,3,4,5-tetrahydropyridin-2-yl)-4-fluoro-phenyl)-5-cyanopicolinamide], in that order: 2.07, 103% and 20 nM.
Consider `Cc1nc(C(=O)Nc2ccc(F)c([C@@]3(CF)N=C(N)CCC3(F)F)c2)co1` [Compound 7, (S)-N-(3-(6-amino-3,3-difluoro-2-(fluoromethyl)-2,3,4,5-tetrahydropyridin-2-yl)-4-fluoro-phenyl)-2-methyloxazole-4-carboxamide], for which the efflux ratio at 60 min, 0.5 μM in data set [1] is 4.59. Also, the inhibition at 10 µM in data set [2] is 96%. For the same molecule, affinity in data set [3] was put at a Ki of 32 nM.
On to `COc1cnc(C(=O)Nc2ccc(F)c([C@@]3(CF)N=C(N)CCC3(F)F)c2)nc1` [Compound 8, (S)-N-(3-(6-amino-3,3-difluoro-2-(fluoromethyl)-2,3,4,5-tetrahydropyridin-2-yl)-4-fluoro-phenyl)-5-methoxypyrimidine-2-carboxamide], for which, in data set [1], the efflux ratio at 60 min, 0.5 μM was 23.4. This molecule also had a Ki in data set [3] of 29 nM.
As for `NC1=N[C@](CF)(c2cc(NC(=O)c3cnc(C(F)F)cn3)ccc2F)C(F)(F)CC1` [Compound 9, (S)-N-(3-(6-amino-3,3-difluoro-2-(fluoromethyl)-2,3,4,5-tetrahydropyridin-2-yl)-4-fluoro-phenyl)-5-(difluoromethyl)pyrazine-2-carboxamide], the efflux ratio at 60 min, 0.5 μM in data set [1] was found to be 1.76. Moreover, in data set [2], the inhibition at 10 µM was 103%. Also, the Ki in data set [3] was 30 nM.
For `Cc1nc(C(=O)Nc2cc(F)c(F)c([C@@]3(CF)N=C(N)CCC3(F)F)c2)co1` [Compound 10, (S)-N-(3-(6-amino-3,3-difluoro-2-(fluoromethyl)-2,3,4,5-tetrahydropyridin-2-yl)-4,5-difluorophenyl)-2-methyloxazole-4-carboxamide], in that order: 3.57, 102% and 55 nM.
In the case of `NC1=N[C@](CF)(c2cc(NC(=O)c3ccc(F)cn3)cc(F)c2F)C(F)(F)CC1` [Compound 12, (S)-N-(3-(6-amino-3,3-difluoro-2-(fluoromethyl)-2,3,4,5-tetrahydropyridin-2-yl)-4,5-difluorophenyl)-5-fluoropicolinamide], the efflux ratio at 60 min, 0.5 μM in data set [1] came to 1.11. Besides, the inhibition at 10 µM in data set [2] came out at 101%. The Ki in data set [3] worked out at 84 nM.
With `NC1=N[C@](CF)(c2cc(NC(=O)c3ccc(Cl)cn3)cc(F)c2F)C(F)(F)CC1` [Compound 13, (S)-N-(3-(6-amino-3,3-difluoro-2-(fluoromethyl)-2,3,4,5-tetrahydropyridin-2-yl)-4,5-difluorophenyl)-5-chloropicolinamide], the efflux ratio at 60 min, 0.5 μM in data set [1] was 1.11. In addition, in data set [2], the inhibition at 10 µM is 103%. Also, the Ki in data set [3] was 22 nM.
As for `N#Cc1ccc(C(=O)Nc2cc(F)c(F)c([C@@]3(CF)N=C(N)CCC3(F)F)c2)nc1` [Compound 14, (S)-N-(3-(6-amino-3,3-difluoro-2-(fluoromethyl)-2,3,4,5-tetrahydropyridin-2-yl)-4,5-difluorophenyl)-5-cyanopicolinamide], the efflux ratio at 60 min, 0.5 μM in data set [1] came out at 1.81. Also, the inhibition at 10 µM in data set [2] amounted to 103%. This molecule also showed an inhibition constant Ki in data set [3] of 23 nM.
For the molecule `[2H]C([2H])([2H])Oc1ccc(C(=O)Nc2cc(F)c(F)c([C@@]3(CF)N=C(N)CCC3(F)F)c2)nc1` [Compound 16, (S)-N-(3-(6-amino-3,3-difluoro-2-(fluoromethyl)-2,3,4,5-tetrahydropyridin-2-yl)-4,5-difluorophenyl)-5-(methoxy-d3)picolinamide], in data set [1], the efflux ratio at 60 min, 0.5 μM is 1.1. The inhibition at 10 µM in data set [2] was determined as 106%. Besides, the affinity in data set [3] corresponds to a Ki of 21 nM.
For the molecule `Cc1cc(C#N)cnc1C(=O)Nc1cc(F)c(F)c([C@@]2(CF)N=C(N)CCC2(F)F)c1` [Compound 17, (S)-N-(3-(6-amino-3,3-difluoro-2-(fluoromethyl)-2,3,4,5-tetrahydropyridin-2-yl)-4,5-difluorophenyl)-5-cyano-3-methylpicolinamide], the efflux ratio at 60 min, 0.5 μM in data set [1] was 2.21. The inhibition at 10 µM in data set [2] amounted to 111%. The Ki in data set [3] turned out to be 16 nM.
Take `[2H]C([2H])([2H])Oc1ccc(C(=O)Nc2ccc(F)c([C@@]3(CF)N=C(N)CCC3(F)F)c2)nc1` [Compound 18, (S)-N-(3-(6-amino-3,3-difluoro-2-(fluoromethyl)-2,3,4,5-tetrahydropyridin-2-yl)-4-fluorophenyl)-5-(methoxy-d3)picolinamide]: the inhibition at 10 µM in data set [2] came out at 109%. The molecule further returned a Ki in data set [3] of 25 nM.
With `NC1=N[C@](CF)(c2cc(NC(=O)c3ccc(Br)cn3)ccc2F)C(F)(F)CC1` [Compound 19, (S)-N-(3-(6-amino-3,3-difluoro-2-(fluoromethyl)-2,3,4,5-tetrahydropyridin-2-yl)-4-fluorophenyl)-5-bromopicolinamide], the efflux ratio at 60 min, 0.5 μM in data set [1] came out at 1.59. This molecule yielded a Ki in data set [3] of 11 nM.

As usually defined, the efflux ratio is a quotient of directional permeabilities that is used to spot active efflux. The inhibition is the change of the read-out against control, counted positive when it falls. One may read the Ki as the dissociation constant of the complex between target and ligand, obtained from inhibition or displacement. High values mean weaker binding, low ones tighter binding.
